Data from article PMC4890880 (ACS infectious diseases, 2016).
Read-outs that look alike come from different tables or passages of the source.

Assays:
[1] = system: Plasmodium berghei (Pb-Luc) exoerythrocytic-stage parasites; conditions: for IC50: read-out: PbLuc_IC50, Broad compounds; for normalized signal at concentration 10 / normalized signal at concentration 0.000508053 / normalized signal at concentration 0.00152416 / normalized signal at concentration 0.00457247 / normalized signal at concentration 0.0137174 / normalized signal at concentration 0.0411523 / normalized signal at concentration 0.123457 / normalized signal at concentration 0.37037 / normalized signal at concentration 1.11111 / normalized signal at concentration 3.33333: fraction of control
[2] = system: HepG2-A16-CD81EGFP cells; conditions: for IC50: read-out: Tox_IC50, HepG2 cytotoxicity
[3] = system: Plasmodium berghei (Pb-Luc) exoerythrocytic-stage parasites; assay: microbe, parasite or virus in culture
[4] = sheet 2nd round, maximal inhibition in dose response
[5] = read-out: Inhibition% @ 50 uM rep1
[6] = read-out: Inhibition% @ 50 uM rep2

COc1ccc2c3c([nH]c2c1)[C@H](CO)N(Cc1ccccc1)CC31CN(C(=O)c2ccccn2)C1 [BRD-K93348054-001-01-9]
normalised signal at concentration 0.000508053 (first series) ([1]; concentration 0.000508053, first series): 1.077
normalised signal at concentration 0.000508053 (second series) ([1]; concentration 0.000508053, second series): 1.157
normalised signal at concentration 0.00152416 (first series) ([1]; concentration 0.00152416, first series): 0.9906
normalised signal at concentration 0.00152416 (second series) ([1]; concentration 0.00152416, second series): 0.8767
normalised signal at concentration 0.00457247 (first series) ([1]; concentration 0.00457247, first series): 0.8635
normalised signal at concentration 0.00457247 (second series) ([1]; concentration 0.00457247, second series): 1.079
normalised signal at concentration 0.0137174 (first series) ([1]; concentration 0.0137174, first series): 1.042
normalised signal at concentration 0.0137174 (second series) ([1]; concentration 0.0137174, second series): 0.9363
normalised signal at concentration 0.0411523 (first series) ([1]; concentration 0.0411523, first series): 0.9232
normalised signal at concentration 0.0411523 (second series) ([1]; concentration 0.0411523, second series): 0.9999
normalised signal at concentration 0.123457 (first series) ([1]; concentration 0.123457, first series): 0.9966
normalised signal at concentration 0.123457 (second series) ([1]; concentration 0.123457, second series): 1.053
normalised signal at concentration 0.37037 (first series) ([1]; concentration 0.37037, first series): 0.8299
normalised signal at concentration 0.37037 (second series) ([1]; concentration 0.37037, second series): 0.8736
normalised signal at concentration 1.11111 (first series) ([1]; concentration 1.11111, first series): 0.8048
normalised signal at concentration 1.11111 (second series) ([1]; concentration 1.11111, second series): 0.7
normalised signal at concentration 3.33333 (first series) ([1]; concentration 3.33333, first series): 0.6468
normalised signal at concentration 3.33333 (second series) ([1]; concentration 3.33333, second series): 0.6466
normalised signal at concentration 10 (first series) ([1]; concentration 10, first series of dose columns): 0.6758
normalised signal at concentration 10 (second series) ([1]; concentration 10, second series of dose columns): 0.621
IC50 ([1]; sheet "2nd round", dose response top concentration 10): > 10 µM
PbLuc_max_inhibition (%) ([1]; sheet "2nd round"): 38%
IC50 ([2]; sheet "2nd round"): > 10 µM
Tox_max_inhibition (%) ([2]; sheet "2nd round"): 18%

C[C@@H]1CN([C@@H](C)CO)C(=O)c2cccc(NC(=O)c3ccc(-c4nccs4)cc3)c2O[C@H]1CN(C)C(=O)Nc1ccc(C(F)(F)F)cc1 [BRD-K97485207-001-01-1]
normalized signal at concentration 10 ([1]; first series of dose-response columns): 0.53
normalized signal at concentration 0.000508053 ([1]; first series): 0.80
normalized signal at concentration 0.00152416 ([1]; first series): 0.94
normalized signal at concentration 0.00457247 ([1]; first series): 0.89
normalized signal at concentration 0.0137174 ([1]; first series): 0.64
normalized signal at concentration 0.0411523 ([1]; first series): 0.84
normalized signal at concentration 0.123457 ([1]; first series): 1.04
normalized signal at concentration 0.37037 ([1]; first series): 0.85
normalized signal at concentration 1.11111 ([1]; first series): 0.73
normalized signal at concentration 3.33333 ([1]; first series): 0.73
IC50 ([1]; sheet 2nd round, dose response): > 10 µM
normalized signal at concentration 10 ([1]; second series of dose-response columns): 0.66
normalized signal at concentration 0.000508053 ([1]; second series): 0.85
normalized signal at concentration 0.00152416 ([1]; second series): 0.90
normalized signal at concentration 0.00457247 ([1]; second series): 0.80
normalized signal at concentration 0.0137174 ([1]; second series): 0.89
normalized signal at concentration 0.0411523 ([1]; second series): 0.77
normalized signal at concentration 0.123457 ([1]; second series): 0.77
normalized signal at concentration 0.37037 ([1]; second series): 0.95
normalized signal at concentration 1.11111 ([1]; second series): 0.95
normalized signal at concentration 3.33333 ([1]; second series): 0.97
PbLuc_max_inhibition (%) [1, 4]: 47%
IC50 ([2]; sheet 2nd round): > 10 µM
Tox_max_inhibition (%) [2, 4]: 6.47%

CCOc1ccc(Nc2c3ccccc3nc3ccccc23)cc1 [MMV000304]
inhibition at 50 µM [3, 5]: 104%
inhibition at 50 µM [3, 6]: 104%
HepG2 Tox% @ 50 uM rep1 ([2]; human, 50 uM): 102%

CCCCCn1c(=N)n(CC(O)COc2cccc(C)c2)c2ccccc21 (stereo not shown) [MMV000444]
inhibition at 50 µM [3, 5]: 102%
inhibition at 50 µM [3, 6]: 103%
HepG2 Tox% @ 50 uM rep1 ([2]; human, 50 uM): 100%

CCOc1cc2c(cc1OCC)C(c1cc(Cl)ccc1O)NCC2 (stereo not shown) [MMV000478]
inhibition at 50 µM [3, 5]: 103%
inhibition at 50 µM [3, 6]: 104%
HepG2 Tox% @ 50 uM rep1 ([2]; human, 50 uM): 101%

CCCCC(O)(c1ccc(Cl)cc1)C(CN1CCOCC1)c1ccc(Cl)cc1 (stereo not shown) [MMV000619]
inhibition at 50 µM [3, 5]: 99%
inhibition at 50 µM [3, 6]: 100%
HepG2 Tox% @ 50 uM rep1 ([2]; human, 50 uM): 97%

OC(CNCc1ccccc1)Cn1c2ccccc2c2ccccc21 (stereo not shown) [MMV000839]
inhibition at 50 µM [3, 5]: 101%
inhibition at 50 µM [3, 6]: 100%
HepG2 Tox% @ 50 uM rep1 ([2]; human, 50 uM): 99%

OCCNc1nc(Nc2ccc(Cl)c(Cl)c2)nc2ccccc12 [MMV001041]
inhibition at 50 µM [3, 5]: 99%
inhibition at 50 µM [3, 6]: 101%
HepG2 Tox% @ 50 uM rep1 ([2]; human, 50 uM): 98%

CN(C)CCNc1cc(-c2ccccc2)nc2ccccc12 [MMV006704]
inhibition at 50 µM [3, 5]: 95%
inhibition at 50 µM [3, 6]: 97%
HepG2 Tox% @ 50 uM rep1 ([2]; human, 50 uM): 96%

COc1ccc(Nc2cc(C)nc(NCc3ccccc3)n2)cc1 [MMV006825]
inhibition at 50 µM [3, 5]: 100%
inhibition at 50 µM [3, 6]: 100%
HepG2 Tox% @ 50 uM rep1 ([2]; human, 50 uM): 97%

CCOC(=O)c1cnc2ccc(Cl)cc2c1NCCCN(C)C [MMV006882]
inhibition at 50 µM [3, 5]: 99%
inhibition at 50 µM [3, 6]: 102%
HepG2 Tox% @ 50 uM rep1 ([2]; human, 50 uM): 99%

CCOc1ccc2nc(C)cc(Nc3ccc(N(C)C)cc3)c2c1 [MMV007020]
inhibition at 50 µM [3, 5]: 100%
inhibition at 50 µM [3, 6]: 101%
HepG2 Tox% @ 50 uM rep1 ([2]; human, 50 uM): 97%

COc1nc(Nc2ccc(C(C)C)cc2)nc(OC)n1 [MMV007808]
inhibition at 50 µM [3, 5]: 101%
inhibition at 50 µM [3, 6]: 96%
HepG2 Tox% @ 50 uM rep1 ([2]; human, 50 uM): 94%
HepG2 Tox% @ 50 uM rep2 ([2]; human, 50 uM): 95%

COc1ccc2nc(C)cc(Nc3cccc(O)c3)c2c1 [MMV008212]
inhibition at 50 µM [3, 5]: 99%
inhibition at 50 µM [3, 6]: 102%
HepG2 Tox% @ 50 uM rep1 ([2]; human, 50 uM): 99%

O=C(CCc1ccccc1)c1ccccc1OCC(O)CN1CCCCC1 (stereo not shown) [MMV009015]
inhibition at 50 µM [3, 5]: 99%
inhibition at 50 µM [3, 6]: 100%
HepG2 Tox% @ 50 uM rep1 ([2]; human, 50 uM): 97%

O=C1c2ccc3c4c(ccc(c24)C(=O)N1CCCCO)C(=O)N(CCCCO)C3=O [MMV009085]
inhibition at 50 µM [3, 5]: 103%
inhibition at 50 µM [3, 6]: 104%
HepG2 Tox% @ 50 uM rep1 ([2]; human, 50 uM): 102%
